US20240216395A1, “19-NOR C3,3-DISUBSTITUTED C21 -N-PYRAZOLYL STEROID FOR USE IN TREATING MAJOR DEPRESSIVE DISORDER AND […]” (priority 2021, published 2024)

Assays:
Type in all cases: in vivo, human
[1] = system: nondependent, recreational users of CNS depressants; test: Abuse potential study: MOAA/S sedation scores (dose selection and main study); conditions: dose selection, 60, 80 or 90 mg
Procedure: The first part of the study, dose selection, was a 3-cohort, randomized, double-blind, placebo-controlled, dose-escalation design to identify 2 doses higher than Compound (1)'s anticipated therapeutic dose (30 mg) to carry forward into the main study (FIG. 30A-30B) (U.S. Department of Health and Human Services Food and Drug Administration, Center for Drug Evaluation and Research (CDER). Assessment of abuse potential of drugs: guidance for industry. January, 2017; Griffiths R R, et al. Drug Alcohol Depend. 2003; 70(3):S41-54; Schoedel K, Sellers E. Clin Pharmacol Ther. 2008; 83(4):622-626). The 2 doses were selected based on their safety and tolerability in the dose selection phase, as assessed during sentinel dosing (described below) by the safety and tolerability endpoints (described below). […]
MOAA/S scores were assessed before dose administrations and at multiple time points (1, 2, 3, 4, 5, 6, 7, 8, 10, 12, and 24 hours) after dosing using a 6-point scale, ranging from 0 (no response after painful trapezius squeeze) to 5 (responds readily to name spoken in a normal tone; Table 18). Electrocardiogram measures and the C-SSRS were assessed during screening, admission, at Day 3, and/or at early termination, and AEs/SAEs were assessed on an ongoing basis during enrollment in the study. […]

[2] = system: nondependent, recreational users of CNS depressants; test: Abuse potential main study, treatment phase: TEAEs
Procedure: The main study consisted of 4 phases (FIG. 30B). The screening phase was a 1-day visit occurring within 21 days of the beginning of the qualification phase. The qualification phase was a 4-day, inpatient period to ensure participants could discriminate between alprazolam (active comparator) and placebo, and that they could tolerate the alprazolam 2-mg doses. Participants received single-oral doses of alprazolam 2 mg and placebo in a crossover manner 24 hours apart, and if they could discriminate between the two medications, they continued to the treatment phase. The treatment phase was a double-blind, active- and placebo-controlled, 6-way crossover design where participants were randomized equally to a single oral dose of 1 of 6 treatments: placebo, alprazolam (1.5 and 3 mg), and Compound (1) (30, 60, and 90 mg). The Compound (1) doses were based on the results from the first part, dose selection, and treatments were separated by 7 days. The follow-up phase was a 1-day visit occurring 7 (2) days after the treatment phase.
Safety and tolerability endpoints included the frequency and severity of AEs and SAEs, the change from baseline in clinical laboratory assessments, vital signs, and ECG, and suicidality assessed by the Columbia-Suicide Severity Rating Scale (C-SSRS).
The dose selection safety set included all participants who received 1 dose of Compound (1). The main study qualification safety set included all participants who received ≥1 dose of alprazolam. For the treatment phase, the randomized set included all participants who were randomized and the safety set included all participants who received ≥1 dose of Compound (1) or alprazolam. The completer set included all participants in the randomized set who completed all treatment periods, had sufficient data for evaluation of the primary endpoint, and had ≥1 observation within 2 hours of Tmax for each treatment for Drug Liking VAS scores. […] The PK set included all participants in the treatment phase who received 1 dose of Compound (1) and had 1 PK sample after dosing.

patients with PPD or MDD = test: Most common TEAEs across clinical trials in PPD or MDD: overall ranges; conditions: 30 or 50 mg (N = 583)
Excerpt: The majority of patients receiving Compound (1) and experiencing a TEAE reported TEAEs mild and moderate in severity: clinical trial of Example 4 94%, Phase 2 clinical trial conducted by Applicant 100%, previous Phase 3 clinical trial conducted by Applicant 98%, and clinical trial of Example 1 95.0%.

[3] = treatment phase, Compound (1) 30 mg (n = 65)
[4] = treatment phase, Compound (1) 60 mg (n = 66)
[5] = treatment phase, Compound (1) 90 mg (n = 67)

C[C@@]1(O)CC[C@H]2[C@H](CC[C@@H]3[C@@H]2CC[C@]2(C)[C@@H](C(=O)Cn4cc(C#N)cn4)CC[C@@H]32)C1 [Compound (1), 1-(2-((3R,5R,8R,9R,10S,13S,14S,17S)-3-hydroxy-3,13-dimethylhexadecahydro-1H-cyclopenta[a]phenanthren-17-yl)-2-oxoethyl)-1H-pyrazole-4-carbonitrile]
Time for all MOAA/S scores to return to baseline score of 5 [1]: ≤ 8 hours postdose | MOAA/S score (mild sedation) in 1 to 4 participants of at least 1 cohort ([1]; 2-7 hours postdose): 2-4 | Severe TEAEs and deaths ([2]; 30, 60, 90 mg single doses): no reported severe TEAEs nor deaths | Back pain (TEAE) [2, 3]: 0 n | Confusional state (TEAE) [2, 3]: 0 n | Diarrhea (TEAE) [2, 3]: 0 n | Feeling drunk (TEAE) [2, 3]: 0 n | Fine motor skill dysfunction (TEAE) [2, 3]: 0 n | Hiccups (TEAE) [2, 3]: 0 n | Irritability (TEAE) [2, 3]: 0 n | Lacrimation increased (TEAE) [2, 3]: 0 n | Swelling face (TEAE) [2, 3]: 0 n | Tremor (TEAE) [2, 3]: 0 n | Upper respiratory tract infection (TEAE) [2, 3]: 0 n | Back pain (TEAE) [2, 4]: 0 n | Confusional state (TEAE) [2, 4]: 0 n | Fine motor skill dysfunction (TEAE) [2, 4]: 0 n | Hiccups (TEAE) [2, 4]: 0 n | Irritability (TEAE) [2, 4]: 0 n | Lacrimation increased (TEAE) [2, 4]: 0 n | Swelling face (TEAE) [2, 4]: 0 n | Upper respiratory tract infection (TEAE) [2, 4]: 0 n | Back pain (TEAE) [2, 5]: 0 n | Diarrhea (TEAE) [2, 5]: 0 n | Hiccups (TEAE) [2, 5]: 0 n | Lacrimation increased (TEAE) [2, 5]: 0 n | Upper respiratory tract infection (TEAE) [2, 5]: 0 n | Any TEAE, overall range across trials (patients with PPD or MDD): 53.3-60.3% | Diarrhea, overall range across trials (patients with PPD or MDD): 0-6.4% | Dizziness, overall range across trials (patients with PPD or MDD): 5.7-13.8% | Fatigue, overall range across trials (patients with PPD or MDD): 1.1-6.8% | Headache, overall range across trials (patients with PPD or MDD): 6.3-17.8% | Nausea, overall range across trials (patients with PPD or MDD): 3.6-11.1% | Sedation, overall range across trials (patients with PPD or MDD): 4.4-7.5% | Somnolence, overall range across trials (patients with PPD or MDD): 6.7-15.4% | URTI, overall range across trials (patients with PPD or MDD): 0-7.7%
